Results from patent EP3398601A1, “NICOTINAMIDE FOR TREATING DYSLIPIDEMIA” (priority 2017, dated 2018).
“Also recorded” adds a separate entry of the source.

Key:
NaPi2b [1] = assay: Intestinal (ileum) NaPi2b expression, immune fluorescence and RNA, in 5/6 nephrectomized DBA/2 mice; assay type: in vivo, DBA/2 mouse
Procedure: Further, the effect of nicotinamide treatment on intestinal NaPi2b protein expression in a mouse model (DBA/2 mouse) was investigated.
(§1) For this purpose, 5/6 nephrectomized DBA/2 mice were used as model for vascular calcification. The mice were treated with nicotinamide (NA) in a concentration of 600 µg/mL in the drinking water.
Bars between columns indicate significant between groups differences (ANOVA with Tukey Post Test, p<0.05).

[2] = S-phosphate and fractional phosphate elimination in DBA/2 mice; assay type: in vivo; details: for fractional phosphate elimination (in words): DBA/2 mice
Procedure: as §1

NaPi2b [3] = assay: Renal NaPi2b protein expression, immune fluorescence, in 5/6 nephrectomized DBA/2 mice; details: 5/6 nephrectomized DBA/2 mice (CKD); Fig. 4
FGF23 = FGF23 in DBA/2 mice; assay type: in vivo
Procedure: as §1

[4] = given in combination with the phosphate binder sevelamer; cited from earlier work
NaPi2b [5] = details: intraperitoneal administration; cited from earlier work
[6] = intraperitoneal administration; cited from earlier work
Lp(a) [7] = assay: Lp(a) plasma levels (Apo(a) ELISA) in transgenic Apo(a) mice given the substance in chow, cross-over design; details: for reduction of Lp(a): 1% orally as food supplement, compared to baseline levels
Procedure: In the transgenic Apo(a) mice (tg-Apo(a)) Apo(a) is expressed mainly in female mice.
Levels of Apo(a) were determined by means of ELISA and were expressed as Lp(a) in mg/dl as each molecule Apo(a) binds one molecule of LDL to form Lp(a).

GPR109A receptor = GPR109A receptor (Homo sapiens, UniProt Q8TDS4); details: cited from earlier work
Chain of GPR109A receptor (Q8TDS4 whole entry): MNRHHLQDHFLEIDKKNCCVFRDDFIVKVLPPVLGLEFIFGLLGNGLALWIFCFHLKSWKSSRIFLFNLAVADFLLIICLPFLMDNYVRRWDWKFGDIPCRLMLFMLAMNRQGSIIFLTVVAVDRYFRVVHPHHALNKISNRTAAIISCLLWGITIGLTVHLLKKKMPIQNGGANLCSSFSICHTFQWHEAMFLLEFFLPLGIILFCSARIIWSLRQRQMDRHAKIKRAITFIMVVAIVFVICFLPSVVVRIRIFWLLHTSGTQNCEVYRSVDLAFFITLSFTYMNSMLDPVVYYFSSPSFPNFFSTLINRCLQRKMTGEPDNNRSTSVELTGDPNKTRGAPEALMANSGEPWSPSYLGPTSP

Lp(a) [8] = details: literature values (Carlson, 1989; Kotani, 2017); cited from earlier work
Apo(a) = details: oral treatment with 1% nicotinic acid in the chow; female tg-Apo(a) mice; cited from earlier work

O=C(O)O [magnesium carbonate]
intestinal NaPi2b protein / cotransporter content of the small intestine (in words) (NaPi2b [1]; 5/6 nephrectomized DBA/2 mice, NA 600 µg/mL in the drinking water, Fig. 3): strongly enhances | intestinal NaPi2b protein / cotransporter content of the small intestine (in words) (NaPi2b [1]; 5/6 nephrectomized DBA/2 mice, NA 600 µg/mL in the drinking water, Fig. 3, listed as Mg): notable increase | intestinal NaPi2b protein / cotransporter content of the small intestine (in words) (NaPi2b [1]; 5/6 nephrectomized DBA/2 mice, NA 600 µg/mL in the drinking water, Fig. 3, listed as magnesium carbonate (Mg)): strong enhancement | increase of cotransporter expression (intestinal NaPi2b) (NaPi2b [1]; 5/6 nephrectomized DBA/2 mice, treatment for 7 weeks, Fig. 3): 10 -fold | fractional phosphate elimination (in words) [2]: reduction | renal NaPi2b protein expression (in words) (NaPi2b [3]): no significant difference compared to baseline; also recorded: no significant effects | FGF23 (in words) (FGF23): reduction

NC(=O)c1cccnc1 [nicotinamide]
treatment of hyperphosphatemia (in words) [4]: ineffective | NaPi2b-RNA of the small intestine (in words) (NaPi2b [1]; DBA/2 mice, NA 600 µg/mL in the drinking water): did not show any influence | fractional phosphate elimination (in words) [2]: reduction | S-phosphate (in words) ([2]; effect only in healthy DBA/2 mice with high phosphate diet (phosphorus content 1.03 % (w/w)), NA 600 µg/mL in the drinking water): decrease | expression of NaPi2b (in words) (NaPi2b [5]): blocks | gastrointestinal absorption of phosphate (in words) [6]: inhibits | reduction of Lp(a) (Lp(a) [7]; after two weeks of treatment): 77% | reduction of Lp(a) (Lp(a) [7]; after week 1): 67% | Lp(a) plasma levels lower compared to nicotinic acid (Lp(a) [7]; after 2 weeks of treatment, Fig. 1 legend): more than 50% | binding to GPR109A receptor (in words) (GPR109A receptor): does not bind or otherwise affect | FGF23 (in words) (FGF23): reduction

O=C(O)c1cccnc1 [nicotinic acid]
reduces Lp(a) (Lp(a) [8]): up to 35% | reduction in plasma Apo(a) protein (Apo(a)): 43% | reduction of Lp(a) (Lp(a) [7]; after two weeks of treatment): 50% | reduction of Lp(a) (Lp(a) [7]; after week 1): 37%
